Results: PubChem BioAssay AID248 (DTP/NCI, 2004)
Inconclusive results and toxic doses are left out. Rule as the data show it: active = T/C of 150% or more; inactive = T/C below 125%.

System: L1210 leukemia ip in BDF1 mice, survival T/C
Experiment: NCI In Vivo Anticancer Drug Screen. Data for tumor model L1210 Leukemia (intraperitoneal) in B6D2F1 (BDF1) mice
Settings: endpoint: mean survival time, higher = longer survival
Outline: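 In this screen, tumor-bearing mice given compound are compared to those given vehicle, and their survival values are reported as a treated-to-control quotient.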

[1] = dose: 25.0 mg/kg/injection, schedule: Q01DX009 (ip), vehicle: saline
[2] = dose: 50.0 mg/kg/injection, schedule: Q01DX009 (ip), vehicle: saline
[3] = dose: 100.0 mg/kg/injection, schedule: Q01DX001 (ip), vehicle: saline
[4] = dose: 200.0 mg/kg/injection, schedule: Q01DX001 (ip), vehicle: saline
[5] = dose: 400.0 mg/kg/injection, schedule: Q01DX001 (ip), vehicle: saline
[6] = dose: 25.0 mg/kg/injection, schedule: Q04DX003 (ip), vehicle: saline
[7] = dose: 50.0 mg/kg/injection, schedule: Q04DX003 (ip), vehicle: saline
[8] = dose: 100.0 mg/kg/injection, schedule: Q01DX009 (ip), vehicle: Klucel (hydroxypropylcellulose) (HPC)
[9] = dose: 200.0 mg/kg/injection, schedule: Q01DX009 (ip), vehicle: Klucel (hydroxypropylcellulose) (HPC)
[10] = dose: 100.0 mg/kg/injection, schedule: Q04DX003 (ip), vehicle: saline with Tween-80
[11] = dose: 200.0 mg/kg/injection, schedule: Q04DX003 (ip), vehicle: saline with Tween-80
[12] = dose: 400.0 mg/kg/injection, schedule: Q04DX003 (ip), vehicle: saline with Tween-80
[13] = dose: 100.0 mg/kg/injection, schedule: Q01DX001 (sc), vehicle: steriod suspending solution
[14] = dose: 400.0 mg/kg/injection, schedule: Q01DX009 (ip), vehicle: Klucel (hydroxypropylcellulose) (HPC)

Measured: T/C

CN(C)c1ccc2c(c1)Cc1cc(N=C3C=CC(=O)O3)ccc1-2
inactive: [1] 100 % of control | dose: 25.0 mg/kg/injection, schedule: Q04DX003 (ip), vehicle: acetone 95 % of control | [2] 97 % of control | dose: 50.0 mg/kg/injection, schedule: Q04DX003 (ip), vehicle: acetone 92 % of control | [3] 89 % of control | dose: 100.0 mg/kg/injection, schedule: Q01DX009 (ip), vehicle: saline 94 % of control | dose: 100.0 mg/kg/injection, schedule: Q04DX003 (ip), vehicle: acetone 88 % of control

CCN(CC)c1ccc(SC#N)cc1
inactive: [3] 101 % of control

NC(=O)C1=C(N)c2ccccc2C1c1ccccc1 (configuration not stated)
inactive: [3] 101 % of control | [4] 97 % of control | [5] 97 % of control

CC(CC1c2ccccc2CCc2ccccc21)CN(C)C (configuration not stated)
inactive: dose: 6.25 mg/kg/injection, schedule: Q01DX009 (ip), vehicle: saline 95 % of control | dose: 12.5 mg/kg/injection, schedule: Q01DX009 (ip), vehicle: saline 104 % of control | [1] 95 % of control | [6] 102 % of control | [2] 101 % of control | [7] 107 % of control | dose: 100.0 mg/kg/injection, schedule: Q04DX003 (ip), vehicle: saline 120 % of control

CC1(Br)C(=O)NC(=O)NC1O (configuration not stated)
inactive: dose: 50.0 mg/kg/injection, schedule: Q01DX009 (ip), vehicle: Klucel (hydroxypropylcellulose) (HPC) 98 % of control | [8] 94 % of control | [9] 94 % of control

CCc1cccc(OC/C=C(\C)CC/C=C(\C)CCC2OC2(C)C)c1 (configuration not stated)
inactive: dose: 100.0 mg/kg/injection, schedule: Q04DX002 (ip), vehicle: saline with Tween-80 103 % of control | dose: 200.0 mg/kg/injection, schedule: Q04DX002 (ip), vehicle: saline with Tween-80 97 % of control | dose: 400.0 mg/kg/injection, schedule: Q04DX002 (ip), vehicle: saline with Tween-80 100 % of control

CCCCCCCCCCCCCCCCN1CNC(=O)NC1
inactive: dose: 100.0 mg/kg/injection, schedule: Q01DX001 (ip), vehicle: other 98 % of control | dose: 200.0 mg/kg/injection, schedule: Q01DX001 (ip), vehicle: other 98 % of control | dose: 400.0 mg/kg/injection, schedule: Q01DX001 (ip), vehicle: other 95 % of control

CCCSc1ccc(N2C(N)=NC(N)=NC2(C)C)cc1
inactive: dose: 12.5 mg/kg/injection, schedule: Q01DX001 (ip), vehicle: saline 98 % of control | dose: 12.5 mg/kg/injection, schedule: Q04DX003 (ip), vehicle: saline 98 % of control | dose: 18.75 mg/kg/injection, schedule: Q01DX009 (ip), vehicle: saline with Tween-80 101 % of control | dose: 25.0 mg/kg/injection, schedule: Q01DX001 (ip), vehicle: saline 108 % of control | [6] 93 % of control | dose: 37.5 mg/kg/injection, schedule: Q01DX009 (ip), vehicle: saline with Tween-80 96 % of control | dose: 50.0 mg/kg/injection, schedule: Q01DX001 (ip), vehicle: saline 108 % of control | [7] 104 % of control | dose: 75.0 mg/kg/injection, schedule: Q04DX003 (ip), vehicle: saline 97 % of control

C=CCC(Cl)(C(=O)OC)C(=O)OC
inactive: [10] 91 % of control | [11] 89 % of control | [12] 94 % of control

CCOC(=O)/C(C#N)=C\c1ccc(OCC)c(OCC)c1
inactive: dose: 100.0 mg/kg/injection, schedule: Q01DX Z (ip), vehicle: methylcellulose (MC) 101 % of control | dose: 200.0 mg/kg/injection, schedule: Q01DX Z (ip), vehicle: methylcellulose (MC) 100 % of control

COc1ccc(-c2nnc3n2C(C)(C)N=C(N)N3)cc1
inactive: [10] 94 % of control | [11] 100 % of control | [12] 97 % of control

COc1cc(/C=N/N=C(N)N)ccc1O
inactive: dose: 15.0 mg/kg/injection, schedule: Q01DX Z (ip), vehicle: saline 95 % of control | dose: 30.0 mg/kg/injection, schedule: Q01DX Z (ip), vehicle: saline 88 % of control | dose: 60.0 mg/kg/injection, schedule: Q01DX Z (ip), vehicle: saline 101 % of control | dose: 120.0 mg/kg/injection, schedule: Q01DX Z (ip), vehicle: saline 97 % of control | dose: 240.0 mg/kg/injection, schedule: Q01DX Z (ip), vehicle: saline 89 % of control

O=C(O)c1cc2ccccc2c(Br)c1O.OC1CCCC2CCC[N-]C12.[Cu+]
inactive: dose: 4.0 mg/kg/injection, schedule: Q01DX015 (sc), vehicle: steriod suspending solution 97 % of control | dose: 16.0 mg/kg/injection, schedule: Q01DX015 (sc), vehicle: steriod suspending solution 103 % of control | dose: 32.0 mg/kg/injection, schedule: Q01DX015 (sc), vehicle: steriod suspending solution 100 % of control | dose: 50.0 mg/kg/injection, schedule: Q01DX001 (sc), vehicle: steriod suspending solution 98 % of control | [13] 111 % of control

CCCCOC(=O)CCCCC(=O)OCCCC
inactive: [8] 104 % of control | [9] 100 % of control | [14] 95 % of control

Nc1nc(N)c(N=Nc2ccc(SCC(=O)O)cc2)c(=O)[nH]1
inactive: [3] 93 % of control | [4] 98 % of control | [5] 96 % of control

CN(N=O)C(=O)NC1C(CO)OC(n2cnc3c(N)ncnc32)C1O (configuration not stated)
inactive: dose: 13.0 mg/kg/injection, schedule: Q01DX001 (ip), vehicle: saline with Tween-80 104 % of control | dose: 20.0 mg/kg/injection, schedule: Q01DX001 (ip), vehicle: saline with Tween-80 106 % of control | dose: 30.0 mg/kg/injection, schedule: Q01DX001 (ip), vehicle: saline with Tween-80 106 % of control | dose: 44.0 mg/kg/injection, schedule: Q01DX001 (ip), vehicle: saline with Tween-80 116 % of control | dose: 67.0 mg/kg/injection, schedule: Q01DX001 (ip), vehicle: saline with Tween-80 117 % of control | dose: 100.0 mg/kg/injection, schedule: Q01DX001 (ip), vehicle: saline with Tween-80 123 % of control | dose: 150.0 mg/kg/injection, schedule: Q01DX001 (ip), vehicle: saline with Tween-80 117 % of control

O=C1C2Nc3ccccc3CC2CN1Cc1ccccc1 (configuration not stated)
inactive: dose: 10.0 mg/kg/injection, schedule: Q04DX003 (ip), vehicle: alcohol 106 % of control | dose: 20.0 mg/kg/injection, schedule: Q04DX003 (ip), vehicle: alcohol 99 % of control | dose: 40.0 mg/kg/injection, schedule: Q04DX003 (ip), vehicle: alcohol 99 % of control | dose: 80.0 mg/kg/injection, schedule: Q04DX003 (ip), vehicle: alcohol 97 % of control | dose: 160.0 mg/kg/injection, schedule: Q04DX003 (ip), vehicle: alcohol 100 % of control

CC12CCC(=O)C=C1CCC1C2CCC2(C)C(C(=O)COC(=O)Cc3ccc(N(CCCl)CCCl)cc3)CCC12 (configuration not stated)
inactive: [13] 99 % of control | dose: 200.0 mg/kg/injection, schedule: Q01DX001 (sc), vehicle: steriod suspending solution 101 % of control | dose: 400.0 mg/kg/injection, schedule: Q01DX001 (sc), vehicle: steriod suspending solution 100 % of control | [14] 90 % of control

CC[N+](C)(CC)CC[N+]1(C)CC2CC=CCC2C1 (configuration not stated)
inactive: dose: 222.0 mg/kg/injection, schedule: Q01DX Z (ip), vehicle: saline 94 % of control | dose: 333.0 mg/kg/injection, schedule: Q01DX Z (ip), vehicle: saline 97 % of control | dose: 500.0 mg/kg/injection, schedule: Q01DX Z (ip), vehicle: saline 94 % of control

C/C(=C/Cl)OC(C)C
inactive: dose: 50.0 mg/kg/injection, schedule: Q01DX009 (ip), vehicle: acetone 99 % of control | dose: 100.0 mg/kg/injection, schedule: Q01DX009 (ip), vehicle: acetone 99 % of control | dose: 200.0 mg/kg/injection, schedule: Q01DX009 (ip), vehicle: acetone 101 % of control
